The source of these data is patent US10577368B2 (The United States of America, as represented by the …, priority 2013, dated 2020).

One test deals with hA2AAR (Homo sapiens (Human), UniProt P29274). Nature of the test: Radioligand binding at hA2AAR, HEK293 cell membranes, [3H]CGS21680. As to conditions: for hA2AAR % inhibition: inhibition of binding at 10 μM; for inhibition at 10 µM: read-out: hA2AAR % inhibition.
The next test addresses hA3AR (Homo sapiens (Human), UniProt P0DMS8). The test can be described thus: Radioligand binding at hA3AR, CHO cell membranes, [125I]I-AB-MECA.
The subject of test [1] is chronic constriction injury model of neuropathic pain. Nature of the test: CCI model of neuropathic pain, reversal of mechano-allodynia. Format: in vivo, mice. The settings on record: for Effect at 3 h (% ± SEM) / Max. effect Emax (% ± SEM) / Time of peak protection: 3 μmol/kg p.o., mice; for Max. effect Emax (% ± SEM) / Time of peak protection: ipsilateral hind paw; for Efficacy in reversing NP in vivo (of full reversal at peak effect): CCI model.

Another test concerns the target hA1AR (Homo sapiens (Human), UniProt P30542). Nature of the test: Radioligand binding at hA1AR, CHO cell membranes, [3H]R-PIA. As to conditions: for inhibition at 10 µM: read-out: hA1AR % inhibition; for hA1AR % inhibition: inhibition of binding at 10 μM.

Chain of hA3AR (P0DMS8 whole entry): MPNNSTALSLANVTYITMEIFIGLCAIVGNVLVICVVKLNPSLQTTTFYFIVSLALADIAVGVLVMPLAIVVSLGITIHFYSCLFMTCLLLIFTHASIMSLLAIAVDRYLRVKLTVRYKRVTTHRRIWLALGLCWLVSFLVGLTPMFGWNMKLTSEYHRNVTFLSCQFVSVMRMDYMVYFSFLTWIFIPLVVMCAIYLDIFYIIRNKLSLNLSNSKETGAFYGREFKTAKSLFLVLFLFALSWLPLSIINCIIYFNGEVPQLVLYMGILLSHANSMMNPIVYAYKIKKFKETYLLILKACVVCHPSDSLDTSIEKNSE
Chain of hA1AR (P30542 whole entry): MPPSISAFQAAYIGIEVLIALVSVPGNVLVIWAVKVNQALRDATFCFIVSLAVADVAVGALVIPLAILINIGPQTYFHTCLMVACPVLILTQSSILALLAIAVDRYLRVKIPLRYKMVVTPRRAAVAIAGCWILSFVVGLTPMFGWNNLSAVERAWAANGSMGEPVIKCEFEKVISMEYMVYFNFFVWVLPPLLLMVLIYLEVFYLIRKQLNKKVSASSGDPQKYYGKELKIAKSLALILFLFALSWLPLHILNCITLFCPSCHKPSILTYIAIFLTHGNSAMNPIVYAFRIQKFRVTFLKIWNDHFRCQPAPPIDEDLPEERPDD
Chain of hA2AAR (P29274 whole entry): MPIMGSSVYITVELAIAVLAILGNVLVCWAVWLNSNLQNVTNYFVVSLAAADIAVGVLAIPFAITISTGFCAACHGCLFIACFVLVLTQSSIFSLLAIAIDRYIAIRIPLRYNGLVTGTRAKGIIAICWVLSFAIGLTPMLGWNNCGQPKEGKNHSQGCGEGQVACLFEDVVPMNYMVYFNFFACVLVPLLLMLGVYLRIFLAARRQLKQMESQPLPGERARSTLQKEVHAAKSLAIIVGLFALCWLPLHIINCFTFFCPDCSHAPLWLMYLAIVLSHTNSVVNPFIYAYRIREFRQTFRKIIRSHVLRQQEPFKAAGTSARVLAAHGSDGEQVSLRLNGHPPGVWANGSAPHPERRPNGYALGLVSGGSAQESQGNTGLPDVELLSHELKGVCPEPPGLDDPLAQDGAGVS

For the molecule `CNC(=O)[C@]12CC1[C@@H](n1cnc3c(NCc4cccc(Cl)c4)nc(N=[N+]=[N-])nc31)[C@H](O)C2O` (some centres unmarked) [Compound 124], the inhibition constant Ki at hA2AAR is 2770 nM; on hA3AR, 1.08 ± 0.75 nM.

At hA3AR, `CNC(=O)[C@]12CC1[C@@H](n1cnc3c(NC)nc(I)nc31)[C@H](O)C2O` (some centres unmarked) [Compound 114] yielded a Ki of 1.91 ± 0.85 nM.

In the case of `CNC(=O)[C@]12CC1[C@@H](n1cnc3c(NC)nc(-n4cc(-c5ccc(F)c(F)c5)nn4)nc31)[C@H](O)C2O` (some centres unmarked) [Compound 102], the hA2AAR % inhibition on hA2AAR was determined as 39 ± 4%. In test [1], the “Effect at 3 h (% ± SEM)” value is listed as 8 ± 8%, the “Max. effect Emax (% ± SEM)” value was determined as 55 ± 6% and the “Time of peak protection” value amounted to 1 h.

For `CNC(=O)[C@]12CC1[C@@H](n1cnc3c(NC4CCC4)nc(I)nc31)[C@H](O)C2O` (some centres unmarked) [Compound 118], the Ki on hA2AAR is more than 10000 nM; at hA3AR, 1.53 ± 0.45 nM.

Molecule `CNC(=O)[C@@]12C[C@@H]1[C@@H](n1cnc3c(NC4CC4c4cccc(Br)c4)nc(C#Cc4ccccc4)nc31)[C@H](O)[C@@H]2O` (mixture of isomers) [Compound 25, (1S,2R,3S,4R,5S)-4-(6-((2-(3-Bromophenyl)cyclopropyl)amino)-2-(phenylethynyl)-9H-purin-9-yl)-2,3-dihydroxy-N-methylbicyclo[3.1.0]hexane-1-carboxamide] showed a Ki on hA3AR of 14.5 ± 1 nM.

In the case of `CNC(=O)[C@@]12C[C@@H]1[C@@H](n1cnc3c(NC4CC4c4cccc(F)c4)nc(C#Cc4ccccc4)nc31)[C@H](O)[C@@H]2O` (mixture of isomers) [Compound 23, (1S,2R,3S,4R,5S)-4-(6-((2-(3-Fluorophenyl)cyclopropyl)amino)-2-(phenylethynyl)-9H-purin-9-yl)-2,3-dihydroxy-N-methylbicyclo[3.1.0]hexane-1-carboxamide], the inhibition at 10 µM at hA2AAR was 1%. The molecule further came in with an inhibition constant (Ki) at hA3AR of 16.5 ± 1.9 nM.

On to `CNC(=O)[C@@]12C[C@@H]1[C@@H](n1cnc3c(NC)nc(C#Cc4cccc(C(F)(F)F)c4)nc31)C(O)C2O` (stereo in doubt) [Compound 14, (1 S,2S,3R,4R,5S)-2,3-Dihydroxy-N-methyl-4-(6-(methylamino)-2-((3-(trifluoromethyl)phenyl)ethynyl)-9H-purin-9-yl)bicyclo[3.1.0]hexane-1-carboxamide], for which the inhibition at 10 µM amounted to 10% at hA1AR and 12 ± 6% on hA2AAR. Further, the “Time of peak protection” value in test [1] lay in the range of 0.5 to 1 h.

`CCNc1nc(N=[N+]=[N-])nc2c1ncn2[C@@H]1C2C[C@]2(C(=O)NC)C(O)[C@H]1O` (some centres unmarked) [Compound 123] yielded a hA2AAR % inhibition at hA2AAR of 11 ± 6%. The molecule further displayed an inhibition constant (Ki) on hA3AR of 0.6 ± 0.08 nM.

Turning to `CNC(=O)[C@]12CC1[C@@H](n1cnc3c(NC)nc(N=[N+]=[N-])nc31)[C@H](O)C2O` (some centres unmarked) [Compound 113], at hA2AAR, the hA2AAR % inhibition is 1 ± 1%. This molecule gave a Ki at hA3AR of 0.54 ± 0.1 nM.

In turn, `CNC(=O)[C@@]12C[C@@H]1[C@@H](n1cnc3c(NC4CC4c4ccc(F)c(F)c4)nc(C#Cc4ccccc4)nc31)[C@H](O)[C@@H]2O` (mixture of isomers) [Compound 26, (1 S,2R,3S,4R,5S)-4-(6-((2-(3,4-Difluorophenyl)cyclopropyl)amino)-2-(phenylethynyl)-9H-purin-9-yl)-2,3-dihydroxy-N-methylbicyclo[3.1.0]hexane-1-carboxamide] returned an inhibition constant Ki at hA3AR of 20.2 ± 2.1 nM.

The molecule `CNC(=O)[C@]12CC1[C@@H](n1cnc3c(NCc4cccc(Cl)c4)nc(-n4cc(-c5ccc(Cl)s5)nn4)nc31)[C@H](O)C2O` (some centres unmarked) [Compound 120] gave a Ki on hA3AR of 11.7 nM. In addition, in test [1], the “Effect at 3 h (% ± SEM)” value is reported as 100%, the “Max. effect Emax (% ± SEM)” value is on record as 100% and the “Time of peak protection” value lay within 0.5 to 4 h.

Take `CNC(=O)[C@@]12C[C@@H]1[C@@H](n1cnc3c(NC)nc(C#CC4CC4)nc31)[C@H](O)[C@@H]2O` [Compound 20, (1S,2R,3S,4R,5S)-4-(2-(Cyclopropylethynyl)-6-(methylamino)-9H-purin-9-yl)-2,3-dihydroxy-N-methylbicyclo[3.1.0]hexane-1-carboxamide]: the inhibition at 10 µM turned out to be 38% at hA1AR and 15 ± 10% on hA2AAR. For the same molecule, the “Efficacy in reversing NP in vivo (of full reversal at peak effect)” value (“Efficacy in reversing NP in vivo” for short) in test [1] was 60-70%.

For the molecule `CNC(=O)[C@@]12C[C@@H]1[C@@H](n1cnc3c(NC)nc(C#CC4CCCCC4)nc31)[C@H](O)[C@@H]2O` [Compound 19, (1S,2R,3S,4R,5S)-4-(2-(Cyclohexylethynyl)-6-(methylamino)-9H-purin-9-yl)-2,3-dihydroxy-N-methylbicyclo[3.1.0]hexane-1-carboxamide], the inhibition at 10 µM on hA1AR was 15%. On hA2AAR, the inhibition at 10 µM was 45 ± 6%. Further, in test [1], the “Max. effect Emax (% ± SEM)” value was found to be 64.1 ± 10.5%, the “Time of peak protection” value fell in the range of 1 to 2 h and the “Efficacy in reversing NP in vivo” value was 60-70%.

Take `CNC(=O)[C@@]12C[C@@H]1[C@@H](n1cnc3c(NC)nc(C#Cc4cccnn4)nc31)[C@H](O)[C@@H]2O` [Compound 10, (1S,2R,3S,4R,5S)-2,3-Dihydroxy-N-methyl-4-(6-(methylamino)-2-(pyridazin-3-ylethynyl)-9H-purin-9-yl)bicyclo[3.1.0]hexane-1-carboxamide]: the inhibition at 10 µM at hA1AR was 11%. In addition, the inhibition at 10 µM on hA2AAR was 13 ± 8%. Moreover, in test [1], the “Time of peak protection” value was 0.5 h and the “Efficacy in reversing NP in vivo” value is “less than full efficacy”.

Take `CNC(=O)[C@]12CC1[C@@H](n1cnc3c(NC)nc(C#Cc4ccccn4)nc31)[C@H](O)C2O` (some centres unmarked) [Compound 401, reference compound]: the hA1AR % inhibition entry on hA1AR is recorded as “(13% ± 8%)”. The hA2AAR % inhibition entry at hA2AAR was “(13% ± 4%)”. Besides, in test [1], the “Efficacy in reversing NP in vivo” value is on record as “low efficacy”.

On to `CNC(=O)[C@]12CC1[C@@H](n1cnc3c(NC)nc(C#Cc4ccccc4)nc31)[C@H](O)C2O` (some centres unmarked) [Compound 400, reference compound], for which the hA1AR % inhibition result at hA1AR is listed as “(18% ± 8%)”. Further, the hA2AAR % inhibition result on hA2AAR was “(14% ± 7%)”. In test [1], the “Effect at 3 h (% ± SEM)” value is listed as 5.0 ± 5.0%, the “Max. effect Emax (% ± SEM)” value is given as 44.1 ± 9.9%, the “Time of peak protection” value was 0.5 to 1 h and the “Efficacy in reversing NP in vivo” value is approximately 30%.

`CNC(=O)[C@@]12C[C@@H]1[C@@H](n1cnc3c(NC)nc(C#Cc4cc5ccccc5o4)nc31)[C@H](O)[C@@H]2O` [Compound 33, (1S,2R,3S,4R,5S)-4-(2-(Benzofuran-2-ylethynyl)-6-(methylamino)-9H-purin-9-yl)-2,3-dihydroxy-N-methylbicyclo[3.1.0]hexane-1-carboxamide]: the inhibition at 10 µM at hA1AR was found to be 13%; at hA2AAR, 18 ± 3%. The “Max. effect Emax (% ± SEM)” value in test [1] is 87.4 ± 0.6%. The “Time of peak protection” value in test [1] is 1 h.

On to `CNC(=O)[C@@]12C[C@@H]1[C@@H](n1cnc3c(NC4CC4c4cccc(C)c4)nc(C#Cc4ccccc4)nc31)[C@H](O)[C@@H]2O` (mixture of isomers) [Compound 22, (1S,2R,3S,4R,5S)-2,3-Dihydroxy-N-methyl-4-(2-(phenylethynyl)-6-((2-(m-tolyl)cyclopropyl)amino)-9H-purin-9-yl)bicyclo[3.1.0]hexane-1-carboxamide], for which the Ki on hA3AR amounted to 17.6 ± 1.3 nM.

Molecule `CNC(=O)[C@]12CC1[C@@H](n1cnc3c(NCc4cccc(Cl)c4)nc(I)nc31)[C@H](O)C2O` (some centres unmarked) [Compound 116] registered a Ki at hA2AAR of more than 10000 nM.

On to `CNC(=O)[C@@]12C[C@@H]1[C@@H](n1cnc3c(C)nc(C#Cc4ccc(C(C)(C)C)cc4)nc31)C(O)C2O` (stereo in doubt) [Compound 41, (1S,2S,3R,4R,5S)-4-(2-((4-(tert-butyl)phenyl)ethynyl)-6-methyl-9H-purin-9-yl)-2,3-dihydroxy-N-methylbicyclo[3.1.0]hexane-1-carboxamide], for which the figures for the inhibition at 10 µM at hA1AR and on hA2AAR were 15 ± 6% and 34 ± 7%, respectively.

The molecule `CNC(=O)[C@]12CC1[C@@H](n1cnc3c(NC4CCC4)nc(-n4cc(-c5ccc(Cl)s5)nn4)nc31)[C@H](O)C2O` (some centres unmarked) [Compound 125] displayed a Ki on hA3AR of 7.13 nM. For the same molecule, in test [1], the “Effect at 3 h (% ± SEM)” value was found to be 90%, the “Max. effect Emax (% ± SEM)” value is listed as 100% and the “Time of peak protection” value was 0.5 to 3 h.

Turning to `CNC(=O)[C@@]12C[C@@H]1[C@@H](n1cnc3c(NC)nc(C#Cc4cc(C)c(C)o4)nc31)[C@H](O)[C@@H]2O` [Compound 29, (1S,2R,3S,4R,5S)-4-(2-((4,5-Dimethylfuran-2-yl)ethynyl)-6-(methylamino)-9H-purin-9-yl)-2,3-dihydroxy-N-methylbicyclo[3.1.0]hexane-1-carboxamide], the inhibition at 10 µM on hA1AR was 15%; at hA2AAR it was 21 ± 3%. In addition, the “Time of peak protection” value in test [1] was determined as 1 h.

As for `CNC(=O)[C@@]12C[C@@H]1[C@@H](n1cnc3c(NC)nc(C#Cc4cccnc4)nc31)[C@H](O)[C@@H]2O` [Compound 15, (1S,2R,3S,4R,5S)-2,3-Dihydroxy-N-methyl-4-(6-(methylamino)-2-(pyridin-3-ylethynyl)-9H-purin-9-yl)bicyclo[3.1.0]hexane-1-carboxamide], the inhibition at 10 µM at hA1AR was determined as 16 ± 10%. On hA2AAR, the inhibition at 10 µM stood at 12 ± 6%. Also, in test [1], the “Time of peak protection” value was 0.5 to 2 h and the “Efficacy in reversing NP in vivo” value is recorded as “low efficacy”.

In turn, `CNC(=O)[C@@]12C[C@@H]1[C@@H](n1cnc3c(NC4CC4c4cccc(Cl)c4)nc(C#Cc4ccccc4)nc31)[C@H](O)[C@@H]2O` (mixture of isomers) [Compound 24, (1S,2R,3S,4R,5S)-4-(6-((2-(3-Chlorophenyl)cyclopropyl)amino)-2-(phenylethynyl)-9H-purin-9-yl)-2,3-dihydroxy-N-methylbicyclo[3.1.0]hexane-1-carboxamide] showed an inhibitory constant (Ki) on hA3AR of 11.2 ± 4.2 nM.

As for `CNC(=O)[C@@]12C[C@@H]1[C@@H](n1cnc3c(NC)nc(C#Cc4ccc(CO)cc4)nc31)[C@H](O)[C@@H]2O` [Compound 31, (1S,2R,3S,4R,5S)-2,3-Dihydroxy-4-(2-((4-(hydroxymethyl)phenyl)ethynyl)-6-(methylamino)-9H-purin-9-yl)-N-methylbicyclo[3.1.0]hexane-1-carboxamide], the inhibition at 10 µM on hA1AR was 16%; on hA2AAR, 11 ± 7%. Also, in test [1], the “Time of peak protection” value amounted to 1 h.

As usually defined, the Ki is a measure of affinity in units of concentration, obtained from inhibition or displacement. A word on the inhibition: it is the drop in the measured response relative to a control, in per cent.
